Experimental data taken from US20230123497A1, “NOVEL ANTIBACTERIAL HYDROGELS” (NewSouth Innovations Pty Limited, priority 2020, published 2023).
Several values for one entry are separate records, joined by “and”; a condition that tells them apart may be missing. Equal entries are not always repeated.

Legend:
[1] = Hydrogel formation, vial inversion test (critical gel concentration); format: physicochemical; conditions: for Remarks (gel state): vial inversion test; for CGC: triggers GdL
Excerpt: (§1) The simplest method to determine whether a suitable hydrogel has formed is to use the vial inversion test. Through visual inspection, a material can be categorised as a solution, viscous solution, partial gel, or solid-like gel. A stable hydrogel needs to be able to hold its weight and/or maintain its shape during this assessment.
(§2) The critical gel concentration (CGC) is defined as the minimum mass of a short peptide required to provide a self-supporting hydrogel per unit volume in the vial inversion test (measured as % w/v).
(§3) Pre-weighed samples of short peptide 4 were prepared in aluminium-covered glass vials and Milli-Q water and 2 equivalents of NaOH (1.0 M) were added to make up concentrations of 1% w/v. The resulting suspensions were vortexed for 5 minutes to provide clear yellow solutions with pH 11.
(§4) To create a high ionic strength environment, 1 equivalent of NaCl was added and the vial was left to stand without disturbance for 3 hours at room temperature. Meanwhile, as an attempt to form a hydrogel by lowering the pH, 2 equivalents of GdL were added to a high pH solution of 4 followed by gentle mixing. These vials were inverted and allowed to stand overnight to confirm the hydrogel formation.
(§5) The formation of hydrogel 4 via the solvent switch method was conducted by dissolving short peptide 4, in an aluminium covered glass vial, with either 50% methanol, ethanol, or dimethyl sulfoxide (DMSO). Respective amounts of Mili-Q water were added to make up concentrations of 1% w/v.
(§6) In addition, gelation time was defined as the time (hours) required for 1% w/v of short peptide 4 to form a hydrogel which can be turned upside down without collapsing.
(§7) Pre-weighed samples of short peptides 10a-17a, 18, and 19 were prepared in glass vials with 10 mm internal diameter, and Milli-Q water was added to make up concentrations of 1% w/v. The resulting suspensions of short peptides 13, 18, and 19 (as ammonium or guanidinium salts) were slowly warmed until all solid had completely dissolved. GdL (1.5 to 2.0 equivalents) was added to the suspension of short peptides 10a-17a, before heat was applied. To create a high ionic strength environment, 1-5 equivalents of NaCl was added to the viscous solution of 10a-17a to make the total volume up to 1 mL, followed by gentle mixing, and the vial was left to stand without disturbance for 3 hours at room temperature. Subsequently, these vials were inverted and allowed to stand overnight to confirm hydrogel formation.

[2] = as above; format: physicochemical; design: key: VS: viscous solution; CG: clear gel; conditions: vial inversion test
Excerpt: as §1, §2, §3, §4, §5, §6, §7

[3] = Frequency sweep test (FST), rheometer; format: physicochemical; conditions: for G′ (modulus storage) / G″ (modulus loss): FST fixed strain 0.1%
Method: The mechanical properties of anthranilamide-based cationic hydrogels were assessed using an Anton Paar MCR 302 rheometer with a 25 mm stainless parallel plate configuration.
(§8) Initially, 1 mL of hydrogels were prepared from short peptides 11-13 and 15-19 in glass vials at concentration of 1% w/v. These vials were warmed using a heat gun to transform the hydrogel to the solution phase. Subsequently, 560 μL of the resulting solutions were cast onto the rheometer plate. The other plate was lowered to the measuring position ([…]) and the hydrogel was allowed to stand for 3 hours for the gel to form. The FST was conducted at fixed strain of 0.1% and frequency ranging from 10 Hz to 0.01 Hz. Meanwhile, the strain sweep test (SST) was performed at a frequency of 1 Hz using 0.1% strain to 100% strain. The rheology data were shown as the average of three repeats for each data point.
(§9) The mechanical properties of hydrogels 4 (formed via addition of NaCl or GdL) before and after blue light irradiation were also assessed using an Anton Paar MCR 302 rheometer with a 25 mm stainless parallel plate configuration. Prior to the hydrogel formation, 560 μL of solution phase of short peptide 4 at 1% w/v were transferred onto a rheometer plate. Meanwhile, hydrogel 4, which had been exposed to blue light, was warmed using a heat gun, to provide its solution phase. Subsequently, 560 μL of this solution phase was cast onto the rheometer plate. The other plate was lowered to the measuring position ([…]) and the hydrogel was allowed to stand for 3 hours for the gel to form. The frequency sweep test (FST) was conducted at fixed strain of 0.1% and frequency ranging from 10 Hz to 0.01 Hz. Meanwhile, the SST was performed at a frequency of 1 Hz using 0.1% strain to 100% strain. In addition, the temperature sweep test was conducted to obtain transition glass (Tg) using fixed frequency of 1 Hz and fixed strain of 0.1% with temperature ramping from 25° C. to 90° C. The rheology data were shown as the average of three repeats for each data point.
In the FST, samples were measured over a range of oscillation frequencies (0.1-10 rad/s) at fixed strain, temperature, and oscillation amplitude. Higher frequencies simulate fast motion on a short time-scale, while low frequencies simulate slow motion on a long time-scale, or rest. All of the hydrogels made from the anthranilamide-based short cationic peptides, which passed the vial inversion test, were subjected to the FST using a rheometer to precisely assess their mechanical properties.

[4] = Strain sweep test (SST), linear viscoelastic region; format: physicochemical; conditions: hydrogels at 1% w/v, SST at 1 Hz, 0.1% to 100% strain
Method: as §8, §9
To observe the structural decay in anthranilamide-based cationic hydrogels, the SST was performed by imposing a non-linear strain. SST provides information about the viscoelastic properties of a hydrogel through determination of its linear viscoelastic region (LVER). […] Here, the LVER reported for each hydrogel represents the deviation of storage modulus (G′) from linearity, known as yield point (γy). Yield points have been reported to reflect a point where the rigidity of a hydrogel starts to weaken.

[5] = Atomic force microscopy (AFM) of fibers; format: physicochemical; conditions: for fiber bundle diameter: hydrogel after addition of salt, 4× below CGC; for fiber diameter: hydrogel, 4× below CGC (17 imaged at 0.10% w/v)
Method: Hydrogels of NO-releasing short peptide 4 (1 drop), at high pH, low pH, and after irradiation, were cast onto a mica substrate. Hydrogels of cationic short peptides 11-13 and 15-19 were prepared at their CGC, 2× below, and 4× below CGC in glass vials. Prior to gelation, one drop of the cationic short peptide solutions was cast onto a mica substrate. Using a glass slide, each droplet was carefully spread and was left to dry overnight before imaging. Imaging was performed using a Bruker Multimode 8 Atomic Force Microscope in Scanasyst Air (PeakForce Tappings) mode, which is based on tapping mode AFM. To prevent damage of soft samples, the imaging parameters were constantly optimized through the force curves that were collected. Bruker Scanasyst-Air probes were used, with a spring constant of 0.4-0.8 N·m^−1 and a tip radius of 2 nm.
To gain some insight on the mechanism of antibacterial action, the released solutions from hydrogel made of primary ammonium 11 were directly cast onto a mica substrate. […] After gently spreading using a glass slide and left to dry overnight, these samples were imaged using a similar manner as describe above.

[6] = system: S. aureus 38; assay: Antibacterial activity of cationic hydrogels, viable count method; format: cell-based, Staphylococcus aureus; conditions: hydrogel at 1% w/v in contact with S. aureus, compared to control
Method: The antibacterial activity of the anthranilamide-based cationic hydrogels 11-13 and 15-19 was investigated in vitro against S. aureus. The antibacterial activity of anthranilamide-based cationic hydrogel 11 was also investigated in vitro against E. coli.
First, a single colony of S. aureus 38 or E. coli K12 was grown in Luria-Bertani (LB) broth medium at 37° C. overnight. The resulting bacteria were harvested, via centrifugation, to obtain a bacteria pellet which was re-suspended in the same volume of LB medium, twice. The optical density (OD) value of the resulting culture was adjusted to 0.1 at 600 nm in LB (10^8 cfu·mL^−1). This bacteria solution was then further adjusted to 3×10^4 cfu mL^−1. (CFU or cfu=colony-forming unit). Bacteria solutions (1 mL), which contain either 10^8 CFUs/mL or 3×10^4 CFUs/mL, were gently added to hydrogel 11 at 1% w/v with total volume of 1 mL. Anthranilamide-based cationic hydrogels 11-13 and 15-19 (1 mL) were prepared at 1% w/v in glass vials as described above. On top of these pre-formed hydrogels, 1 mL of bacteria solution was carefully cast. […] As a negative control, a bacterial solution in the absence of hydrogel was used. After being incubated at 37° C. for 18 hours, 100 μL of bacteria solution in each vial was taken and subjected to serial dilution using phosphate buffer solution (PBS). 20 μL of each dilution were carefully transferred into nutrient agar plates and incubated for another 18 hours. The following day, bacterial growth inhibition was quantified using the viable count method. The experiment was performed twice in triplicate and multiple sample comparison was performed using one-way ANOVA at p<0.05.

[7] = Hydrogel formation, vial inversion test (critical gel concentration); format: physicochemical; design: key: OG: opaque gel; P: precipitate; conditions: cationic peptides 10-14; vial inversion test
Excerpt: as §1, §2, §3, §4, §5, §6, §7

[8] = as above; format: physicochemical; design: key: CG: clear gel; PG: partial gel; OG: opagque gel; conditions: cationic peptides 15-19
Excerpt: as §1, §2, §3
To create a high ionic strength environment, 1 equivalent of NaCl was added and the vial was left to stand without disturbance for 3 hours at room temperature. Meanwhile, as an attempt to form a hydrogel by lowering the pH, 2 equivalents of GdL were added to a high pH solution of 4 followed by gentle mixing. These vials were inverted and allowed to stand overnight to confirm the hydrogel formation. […]

[9] = hydrogels of cationic peptides 10-14
[10] = cationic peptides 10-14, heat and NaCl (13: heat and NaCl)
[11] = cationic peptides 15-19, heat and NaCl (18, 19: heat and NaCl)
[12] = hydrogels of cationic peptides 15-19

| Structure (SMILES) | pH [1, 9] | LVER (linear viscoelastic region) [4] | fiber bundle diameter [5] [nm] | bacterial reduction [6] [Log10] | CGC [1, 11] [% W/V] | pH [1, 12] | G′/G″ ratio ([3]; hydrogels 15-19 at 1% w/v) | G′ (modulus storage) ([3]; hydrogels 15-19 at 1% w/v) [kPa] | G″ (modulus loss) ([3]; hydrogels 15-19 at 1% w/v) [kPa] | fiber diameter [5] [nm] | other results |
| --- | --- | --- | --- | --- | --- | --- | --- | --- | --- | --- | --- |
| NCCNC(=O)[C@H](Cc1ccccc1)NC(=O)c1ccccc1NC(=O)c1ccc2ccccc2c1 [Compound 10] | 5.5 | – | – | – | – | – | – | – | – | – | Remarks (gel state) ([1]; cationic peptides 10-14): CG → PG |
| CN(C)CCCNC(=O)[C@H](Cc1ccccc1)NC(=O)c1ccccc1NC(=O)c1ccc2ccccc2c1 [Compound 12] | 5.5 | 0.98 ± 0.02% | 139±10 | 5.1 | – | – | – | – | – | – | Remarks (gel state) ([2]; cationic peptides 10-14): CG; CGC [1, 10]: 0.3 % w/v; G′/G″ ratio ([3]; hydrogels 11-13 at 1% w/v): 15.7; G′ (modulus storage) ([3]; hydrogels 11-13 at 1% w/v): 8.63 kPa; G″ (modulus loss) ([3]; hydrogels 11-13 at 1% w/v): 0.55 kPa |
| C[N+](C)(C)CCCNC(=O)[C@H](Cc1ccccc1)NC(=O)c1ccccc1NC(=O)c1ccc2ccccc2c1.[I-] [Compound 13, (S)-3-(2-(2-(2-naphthamido)benzamido)-3-phenylpropanamido)-N,N,N-trimethylpropan-1-aminium iodide] | 6 | 1.10 ± 0.04% | 148±16 | 4.1 | – | – | – | – | – | – | CGC [1, 10]: 0.2 % w/v; Remarks (gel state) [7]: OG; G′/G″ ratio ([3]; hydrogels 11-13 at 1% w/v): 10.9; G′ (modulus storage) ([3]; hydrogels 11-13 at 1% w/v): 2.28 kPa; G″ (modulus loss) ([3]; hydrogels 11-13 at 1% w/v): 0.21 kPa |
| N=C(N)NCCCNC(=O)[C@H](Cc1ccccc1)NC(=O)c1ccccc1NC(=O)c1ccc2ccccc2c1 [Compound 14] | 6 | – | – | – | – | – | – | – | – | – | – |
| CN(C)CCCNC(=O)[C@H](Cc1ccccc1)NC(=O)c1ccc(F)cc1NC(=O)c1ccc2ccccc2c1 [Compound 15] | – | 2.01% and 2.01 ± 0.06% | 115±10 | 3.1 | 0. | 5.5 | 20 | 1.20 | 0.06 | – | Remarks (gel state) [8]: OG |
| CN(C)CCCNC(=O)[C@H](Cc1ccccc1)NC(=O)c1ccc(Br)cc1NC(=O)c1ccc2ccccc2c1 [Compound 17] | – | 0.16% and 0.16 ± 0.01% | – | – | – | 5.5 | 4.0 | 0.08 | 0.02 | 101±6 | Remarks (gel state) ([1]; cationic peptides 15-19): OG → PG |
| CN(C)CCCNC(=O)[C@H](Cc1ccccc1)NC(=O)c1ccccc1NC(=O)c1ccc2ccccc2c1 [Compound 18, (S)-3-(2-(2-(2-naphthamido)benzamido)-3-phenylpropanamido)-N,N-dimethylpropan-1-aminium Ttrifluoroacetate] | – | 0.98 ± 0.02% | – | 4.9 | 0.3 | 4 | 16.5 | 5.12 | 0.31 | 104±4 | Remarks (gel state) ([2]; cationic peptides 15-19): CG |
| CN(C)CCCNC(=O)[C@H](Cc1ccccc1)NC(=O)c1ccccc1NC(=O)c1ccc2ccccc2c1.Cl [Compound 19, (S)-3-(2-(2-(2-naphthamido)benzamido)-3-phenylpropanamido)-N,N-dimethylpropan-1-aminium Chloride] | – | 1.00 ± 0.01% | – | 3.0 | 0.3 | 5 | 10.1 | 1.61 | 0.16 | 87±6 | Remarks (gel state) ([2]; cationic peptides 15-19): CG |
